Tests used:
U251MG cells = test: Wound healing (cell migration) assay in U251MG; assay type: cell-based, human; settings: 10 µM, 48 h
Method: (§1) The cell migration assay was conducted as previously described. GL261 cells and U251 cells (2.0 × 10^4 cells per well) were plated in a 12-well plate (BD Biosciences, Tokyo, Japan) with culture medium supplemented with 10% FBS. After 24 h of incubation, the medium was changed to DMEM containing 1% FBS. After 6 h, wounds were scratched by a P1000 pipette tip and washed with phosphate-buffered saline (PBS) to eliminate cell debris. Then, fresh medium was added with 10 µM astaxanthin or adonixanthin. Pictures were taken at 48 h and these scratched areas were measured using an All-in-One Fluorescence Microscope (BZ-X710; Keyence, Osaka, Japan). The cell migration rate was measured the area of the wound before migration (S0) and after migration (S1) and calculated […]. The control group was then standardized to be 100%. Wound widths at 0 h were created within 1 to 1.5 mm and data were excluded if they were not suitable for that width.

GL261 cells [1] = test: Cell viability (CCK-8 assay) in GL261; assay type: cell-based, mouse; settings: GL261, treated for 96 h
Method: U251MG, GL261, or U87MG cells were seeded onto 96-well plates at a density of 2 × 10^3 cells/well with DMEM supplemented with 10% FBS and then incubated for 24 h, after which the culture medium was changed to DMEM containing 10% FBS. Then, astaxanthin, adonixanthin or temozolomide (Tokyo Chemical Industry Co., Ltd., Tokyo, Japan) were added to the culture. Cell proliferation was determined using the CCK-8 assay according to the manufacturer’s instructions (Dojindo, Kumamoto, Japan). After each incubation, 10 μL of CCK-8 solution were added to each well. Plates were incubated for 3 h for 37 °C, and the absorbance was read at 450 nm with a reference wavelength of 630 nm using a Varioscan Flash 2.4 microplate reader (Thermo Fisher Scientific, Waltham, MA, USA).

Fibronectin mRNA = test: qRT-PCR of Fibronectin mRNA in GL261; assay type: cell-based, mouse; settings: GL261, 10 µM, 48 h
Method: To evaluate the effect of astaxanthin and adonixanthin on the expression of Fibronectin mRNA expression, we performed quantitative real-time reverse transcription polymerase chain reaction (qRT-PCR) analysis. GL261 cell was seeded at 2.5 × 10^4 cells well in 24-well plates with culture medium supplemented with 10% FBS. After 24 h of incubation, the medium was changed to DMEM containing 10% FBS and 0.1% DMSO PBS, 300 μM temozolomide, 10 µM astaxanthin, or 10 µM adonixanthin was added for 48 h. After 48 h of treatment, RNA was isolated from GL261 cells using Nucleo Spin RNA II (Takara, Shiga, Japan). RNA concentrations were determined using NanoVue Plus (GE Healthcare Japan, Tokyo, Japan). Single-strand cDNAs were synthesized from the isolated RNAs via reverse transcription with a PrimeScript RT Reagent Kit (Perfect Real Time; Takara). Quantitative real-time RT-PCR was performed using TB Green Premix Ex Taq II (Tli RNaseH Plus; Takara) and a TP800 Thermal Cycler Dice Real Time System (Takara). All procedures were carried out in accordance with the manufacturer’s instructions. […] The results are expressed as relative gene expression levels normalized to that of β-actin.

GL261 cells [2] = test: Wound healing (cell migration) assay in GL261; assay type: cell-based, mouse; settings: GL261, 10 µM, 48 h
Method: as §1

ERK1/2 = test: Immunoblotting, phosphorylation of ERK1/2 in GL261; assay type: cell-based, mouse; settings: GL261, 10 µM, 6 h post-treatment
Method: GL261 cell was seeded at 2.5 × 10^4 cells per well in 24-well plates with culture medium supplemented with 10% FBS. After 24 h of incubation, the medium was changed to DMEM containing 10% FBS and 0.1%DMSO PBS, 300 μM temozolomide, 10 μM astaxanthin, or 10 μM adonixanthin was added for 6 and 48 h. Cells were lysed in a special buffer (RIPA buffer R0278; Sigma-Aldrich, St. Louis, MO, USA) with a protease inhibitor cocktail (Sigma-Aldrich), phosphatase inhibitor cocktails 2 and 3 (Sigma-Aldrich), and sample buffer (Wako, Osaka, Japan). The protein concentration was determined by comparison with a known concentration of bovine serum albumin using the BCA Protein Assay Kit (Thermo Fisher Scientific). The amount of total protein was 2 μg. […] The band intensity was […] using an Immuno Star LD (Wako). Band intensity was measured using an LAS-4000 UV mini Luminescent Image Analyzer (Fujifilm, Tokyo Japan) and Multi Gauge Version 3.0 (Fujifilm). The phosphorylation of ERK1/2, Akt, and p38 MAPK was measured by normalizing against total ERK1/2, total Akt, and total p38 MAPK. […]

## CC1=C(/C=C/C(C)=C/C=C/C(C)=C/C=C/C=C(C)/C=C/C=C(C)/C=C/C2=C(C)C(=O)[C@@H](O)CC2(C)C)C(C)(C)C[C@H](O)C1=O [Astaxanthin, astaxanthin]
U251MG cells
  suppression of cell migration: 21.15 ± 1.84%
GL261 cells [1]
  concentration above which cell viability was suppressed: more than 5 µM
Fibronectin mRNA
  mRNA level of fibronectin: decreased
GL261 cells [2]
  suppression of cell migration: 8.84 ± 2.09%
ERK1/2
  phosphorylation of ERK1/2: decreased

## CC1=C(/C=C/C(C)=C/C=C/C(C)=C/C=C/C=C(C)/C=C/C=C(C)/C=C/C2=C(C)C(=O)[C@@H](O)CC2(C)C)C(C)(C)C[C@H](O)C1 [Adonixanthin, adonixanthin]
U251MG cells
  suppression of cell migration: 26.32 ± 5.14%
GL261 cells [1]
  concentration above which cell viability was suppressed: > 0.1 µM
Fibronectin mRNA
  mRNA level of fibronectin: decreased
GL261 cells [2]
  suppression of cell migration: 13.74 ± 4.01%
ERK1/2
  phosphorylation of ERK1/2: decreased

Source: article PMC7551886, “Antitumour Effects of Astaxanthin and Adonixanthin on Glioblastoma” (Marine Drugs, 2020)
